From patent EP3375430A1, “FRAGRANCE COMPOSITIONS” (Takasago International Corporation, priority 2017, dated 2018)

What was measured:
[1] = Amount of fragrance ingredients retained on paper blotter after evaporation (ethanol extraction, GC-MS); format: physicochemical
Procedure, shortened: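 100 µL of fragrance formulation applied to paper blotters kept at 32°C open to air; at each time three blotters extracted 1 h in ethanol with methyl decanoate internal standard and analysed by GC-MS (HP-5MS, 50–280°C). Amounts averaged over triplicates and expressed as percent of time-zero level.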

[2] = Headspace concentration of fragrance ingredients over blotter (thermal desorption GC-MS); format: physicochemical; settings: fragrance TAK;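 for headspace concentration in composition C1 compared to control EdT1: C1 is an invention composition and EdT1 a conventional EdT of fragrance TAK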
Procedure, shortened: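 Fragrance (100µL) applied to a 10 cm perfumers' blotter held on a 32°C hot plate, equilibrated 5 min; headspace drawn through Tenax TA tubes at 17mL/min until 280mL collected, repeated at later sampling times. Tubes thermally desorbed splitless onto HP-5MS column, GC-MS detection, mass range 35 to 350.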

[3] = Table 3, fragrance TAK in C1, 15 min, 32°C
[4] = Table 3, fragrance TAK in C1, 60 min, 32°C
[5] = Table 3, fragrance TAK in C1, 120 min, 32°C
[6] = Table 3, fragrance TAK in C1, 240 min, 32°C
[7] = Table 3, fragrance TAK in C1, 480 min, 32°C
[8] = Table 3, fragrance TAK in EdT1, 15 min, 32°C
[9] = Table 3, fragrance TAK in EdT1, 60 min, 32°C
[10] = Table 3, fragrance TAK in EdT1, 120 min, 32°C
[11] = Table 3, fragrance TAK in EdT1, 240 min, 32°C
[12] = Table 3, fragrance TAK in EdT1, 480 min, 32°C
[13] = Table 3, fragrance TAK in EdT1 or C1, T0, set at 100% (normalisation)
[14] = Table 4, fragrance TAK in C2, 15 min, 32°C
[15] = Table 4, fragrance TAK in C2, 480 min, 32°C
[16] = Table 4, fragrance TAK in EdT1, 15 min, 32°C
[17] = Table 4, fragrance TAK in EdT1, 480 min, 32°C
[18] = Table 4, fragrance TAK in EdT1 or C2, T0, set at 100% (normalisation)
[19] = Table 5, fragrance TAK in C3, 15 min, 32°C
[20] = Table 5, fragrance TAK in C3, 60 min, 32°C
[21] = Table 5, fragrance TAK in C3, 120 min, 32°C
[22] = Table 5, fragrance TAK in C3, 240 min, 32°C
[23] = Table 5, fragrance TAK in C3, 480 min, 32°C
[24] = Table 5, fragrance TAK in C3, 1440 min, 32°C
[25] = Table 5, fragrance TAK in EdT1, 15 min, 32°C
[26] = Table 5, fragrance TAK in EdT1, 60 min, 32°C
[27] = Table 5, fragrance TAK in EdT1, 120 min, 32°C
[28] = Table 5, fragrance TAK in EdT1, 240 min, 32°C
[29] = Table 5, fragrance TAK in EdT1, 480 min, 32°C
[30] = Table 5, fragrance TAK in EdT1, 1440 min, 32°C
[31] = Table 5, fragrance TAK in EdT1 or C3, T0, set at 100% (normalisation)
[32] = Table 6, fragrance TAK in C4, 15 min, 32°C
[33] = Table 6, fragrance TAK in C4, 60 min, 32°C
[34] = Table 6, fragrance TAK in C4, 120 min, 32°C
[35] = Table 6, fragrance TAK in C4, 240 min, 32°C
[36] = Table 6, fragrance TAK in C4, 480 min, 32°C
[37] = Table 6, fragrance TAK in EdT1, 15 min, 32°C
[38] = Table 6, fragrance TAK in EdT1, 60 min, 32°C
[39] = Table 6, fragrance TAK in EdT1, 120 min, 32°C
[40] = Table 6, fragrance TAK in EdT1, 240 min, 32°C
[41] = Table 6, fragrance TAK in EdT1, 480 min, 32°C
[42] = Table 6, fragrance TAK in EdT1 or C4, T0, set at 100% (normalisation)

## C=CC(C)(CCC=C(C)C)OC(C)=O (stereo not drawn) [Linalyl acetate]
[1]; [3]
  amount of fragrance ingredient retained on blotter (percentage of the initial amount): 79%
[1]; [4]
  amount of fragrance ingredient retained on blotter (percentage of the initial amount): 62%
[1]; [5]
  amount of fragrance ingredient retained on blotter (percentage of the initial amount): 39%
[1]; [6]
  amount of fragrance ingredient retained on blotter (percentage of the initial amount): 19%
[1]; [7]
  amount of fragrance ingredient retained on blotter (percentage of the initial amount): 7%
[1]; [8]
  amount of fragrance ingredient retained on blotter (percentage of the initial amount): 70%
[1]; [9]
  amount of fragrance ingredient retained on blotter (percentage of the initial amount): 27%
[1]; [10]
  amount of fragrance ingredient retained on blotter (percentage of the initial amount): 6%
[1]; [11]
  amount of fragrance ingredient retained on blotter (percentage of the initial amount): 2%
[1]; [12]
  amount of fragrance ingredient retained on blotter (percentage of the initial amount): <1%
[1]; [13]
  amount of fragrance ingredient retained on blotter (percentage of the initial amount): 100%
[1]; [14]
  amount of fragrance ingredient retained on blotter (percentage of the initial amount): 92%
[1]; [15]
  amount of fragrance ingredient retained on blotter (percentage of the initial amount): 9%
[1]; [16]
  amount of fragrance ingredient retained on blotter (percentage of the initial amount): 72%
[1]; [17]
  amount of fragrance ingredient retained on blotter (percentage of the initial amount): 2%
[1]; [18]
  amount of fragrance ingredient retained on blotter (percentage of the initial amount): 100%
[1]; [19]
  amount of fragrance ingredient retained on blotter (percentage of the initial amount): 83%
[1]; [20]
  amount of fragrance ingredient retained on blotter (percentage of the initial amount): 62%
[1]; [21]
  amount of fragrance ingredient retained on blotter (percentage of the initial amount): 41%
[1]; [22]
  amount of fragrance ingredient retained on blotter (percentage of the initial amount): 24%
[1]; [23]
  amount of fragrance ingredient retained on blotter (percentage of the initial amount): 8%
[1]; [24]
  amount of fragrance ingredient retained on blotter (percentage of the initial amount): 3%
[1]; [25]
  amount of fragrance ingredient retained on blotter (percentage of the initial amount): 70%
[1]; [26]
  amount of fragrance ingredient retained on blotter (percentage of the initial amount): 26%
[1]; [27]
  amount of fragrance ingredient retained on blotter (percentage of the initial amount): 6%
[1]; [28]
  amount of fragrance ingredient retained on blotter (percentage of the initial amount): 2%
[1]; [29]
  amount of fragrance ingredient retained on blotter (percentage of the initial amount): <1%
[1]; [30]
  amount of fragrance ingredient retained on blotter (percentage of the initial amount): <1%
[1]; [31]
  amount of fragrance ingredient retained on blotter (percentage of the initial amount): 100%
[1]; [32]
  amount of fragrance ingredient retained on blotter (percentage of the initial amount): 82%
[1]; [33]
  amount of fragrance ingredient retained on blotter (percentage of the initial amount): 62%
[1]; [34]
  amount of fragrance ingredient retained on blotter (percentage of the initial amount): 34%
[1]; [35]
  amount of fragrance ingredient retained on blotter (percentage of the initial amount): 18%
[1]; [36]
  amount of fragrance ingredient retained on blotter (percentage of the initial amount): 10%
[1]; [37]
  amount of fragrance ingredient retained on blotter (percentage of the initial amount): 70%
[1]; [38]
  amount of fragrance ingredient retained on blotter (percentage of the initial amount): 27%
[1]; [39]
  amount of fragrance ingredient retained on blotter (percentage of the initial amount): 6%
[1]; [40]
  amount of fragrance ingredient retained on blotter (percentage of the initial amount): 2%
[1]; [41]
  amount of fragrance ingredient retained on blotter (percentage of the initial amount): <1%
[1]; [42]
  amount of fragrance ingredient retained on blotter (percentage of the initial amount): 100%
[2]; T0 + 4h, Figure 3
  headspace concentration in composition C1 compared to control EdT1: significantly greater
[2]; T0+4h and T0+8h, Figures 17 and 18
  headspace concentration in composition C14 compared to control EdT1: significantly greater
[2]; T0+4h and T0+8h, Figures 20 and 21, difference significant for linalool, linalyl acetate and Verdox™
  headspace concentration in composition C15 compared to control EdT1: greater
[2]; T0 + 8h, Figure 4
  headspace concentration in composition C1 compared to control EdT1: much greater
[2]; after 1 hour, Figure 2
  headspace concentration in composition C1 compared to control EdT1: greater

## C=C(C)[C@H]1CC=C(C)CC1 [Limonene]
[1]; [3]
  amount of fragrance ingredient retained on blotter (percentage of the initial amount): 18%
[1]; [4]
  amount of fragrance ingredient retained on blotter (percentage of the initial amount): 1%
[1]; [5]
  amount of fragrance ingredient retained on blotter (percentage of the initial amount): 1%
[1]; [6]
  amount of fragrance ingredient retained on blotter (percentage of the initial amount): 1%
[1]; [7]
  amount of fragrance ingredient retained on blotter (percentage of the initial amount): <1%
[1]; [8]
  amount of fragrance ingredient retained on blotter (percentage of the initial amount): 1%
[1]; [9]
  amount of fragrance ingredient retained on blotter (percentage of the initial amount): <1%
[1]; [10]
  amount of fragrance ingredient retained on blotter (percentage of the initial amount): <1%
[1]; [11]
  amount of fragrance ingredient retained on blotter (percentage of the initial amount): <1%
[1]; [12]
  amount of fragrance ingredient retained on blotter (percentage of the initial amount): <1%
[1]; [13]
  amount of fragrance ingredient retained on blotter (percentage of the initial amount): 100%
[1]; [14]
  amount of fragrance ingredient retained on blotter (percentage of the initial amount): 29%
[1]; [15]
  amount of fragrance ingredient retained on blotter (percentage of the initial amount): <1%
[1]; [16]
  amount of fragrance ingredient retained on blotter (percentage of the initial amount): 2%
[1]; [17]
  amount of fragrance ingredient retained on blotter (percentage of the initial amount): <1%
[1]; [18]
  amount of fragrance ingredient retained on blotter (percentage of the initial amount): 100%
[1]; [19]
  amount of fragrance ingredient retained on blotter (percentage of the initial amount): 19%
[1]; [20]
  amount of fragrance ingredient retained on blotter (percentage of the initial amount): <1%
[1]; [21]
  amount of fragrance ingredient retained on blotter (percentage of the initial amount): <1%
[1]; [22]
  amount of fragrance ingredient retained on blotter (percentage of the initial amount): <1%
[1]; [23]
  amount of fragrance ingredient retained on blotter (percentage of the initial amount): <1%
[1]; [24]
  amount of fragrance ingredient retained on blotter (percentage of the initial amount): <1%
[1]; [25]
  amount of fragrance ingredient retained on blotter (percentage of the initial amount): 1%
[1]; [26]
  amount of fragrance ingredient retained on blotter (percentage of the initial amount): <1%
[1]; [27]
  amount of fragrance ingredient retained on blotter (percentage of the initial amount): <1%
[1]; [28]
  amount of fragrance ingredient retained on blotter (percentage of the initial amount): <1%
[1]; [29]
  amount of fragrance ingredient retained on blotter (percentage of the initial amount): <1%
[1]; [30]
  amount of fragrance ingredient retained on blotter (percentage of the initial amount): <1%
[1]; [31]
  amount of fragrance ingredient retained on blotter (percentage of the initial amount): 100%
[1]; [32]
  amount of fragrance ingredient retained on blotter (percentage of the initial amount): 17%
[1]; [33]
  amount of fragrance ingredient retained on blotter (percentage of the initial amount): <1%
[1]; [34]
  amount of fragrance ingredient retained on blotter (percentage of the initial amount): 1%
[1]; [35]
  amount of fragrance ingredient retained on blotter (percentage of the initial amount): 1%
[1]; [36]
  amount of fragrance ingredient retained on blotter (percentage of the initial amount): 1%
[1]; [37]
  amount of fragrance ingredient retained on blotter (percentage of the initial amount): 1%
[1]; [38]
  amount of fragrance ingredient retained on blotter (percentage of the initial amount): <1%
[1]; [39]
  amount of fragrance ingredient retained on blotter (percentage of the initial amount): <1%
[1]; [40]
  amount of fragrance ingredient retained on blotter (percentage of the initial amount): <1%
[1]; [41]
  amount of fragrance ingredient retained on blotter (percentage of the initial amount): <1%
[1]; [42]
  amount of fragrance ingredient retained on blotter (percentage of the initial amount): 100%
[1]; Table 9, fragrance COM1 in C5, T0 + 15 min
  amount of fragrance ingredient retained on blotter (percentage of the initial amount): 11.32%
[1]; Table 9, fragrance COM1 in C5, T0 + 480 min
  amount of fragrance ingredient retained on blotter (percentage of the initial amount): <1%
[1]; Table 9, fragrance COM1 in C5, T0 +1440 min
  amount of fragrance ingredient retained on blotter (percentage of the initial amount): <1%
[1]; Table 9, fragrance COM1 in C6, T0 + 15 min
  amount of fragrance ingredient retained on blotter (percentage of the initial amount): 6.6%
[1]; Table 9, fragrance COM1 in C6, T0 + 480 min
  amount of fragrance ingredient retained on blotter (percentage of the initial amount): <1%
[1]; Table 9, fragrance COM1 in C6, T0 +1440 min
  amount of fragrance ingredient retained on blotter (percentage of the initial amount): <1%
[1]; Table 9, fragrance COM1 in EdT2, C5 or C6, T0, set at 100% (normalisation)
  amount of fragrance ingredient retained on blotter (percentage of the initial amount): 100%
[1]; Table 9, fragrance COM1 in EdT2, T0 + 15 min
  amount of fragrance ingredient retained on blotter (percentage of the initial amount): 1.33%
[1]; Table 9, fragrance COM1 in EdT2, T0 + 480 min
  amount of fragrance ingredient retained on blotter (percentage of the initial amount): <1%
[1]; Table 9, fragrance COM1 in EdT2, T0 +1440 min
  amount of fragrance ingredient retained on blotter (percentage of the initial amount): <1%
[2]; after 1 hour, both control EdT1 and composition C1, Figure 2
  headspace presence of ingredient: lost
